In US6348476B1, “Pharmaceutical combination preparation of an inhibitor of the sodium/hydrogen exchanger and a medicament for the treatment of cardiovascular diseases” (Aventis Pharma Deutschland GmbH, priority 1997, dated 2002):

Test system: experimental cardiac infarct in rats
Assay: experimental cardiac infarct in rats: coronary artery closed for one hour, reperfused for two hours, size of infarct determined
Format: in vivo
Settings: % of the risk area, mean±S.E.M., control 63.4±4.3%
Protocol: Male rats having a body weight of 280 to 410 g were classed into four groups and anaesthetized. The thorax was opened close to the sternum, a silk thread (Ethicon^R; 1.0 metric, 5-0) was placed around left coronary artery and the two loose ends of the thread were pulled through a small plastic tube.
For administration of substance, a catheter was placed into the left jugular vein. The systemic blood pressure was recorded in the left carotid artery using a pressure recorder (Combitrans^R, B. Braun Melsungen AG) and the ECG was registered using subcutaneous electrodes. After digital conversion, the data were registered in a computer and the ECG was evaluated in accordance with the guidelines of the Lambeth Convention (6. Walker M J A, Curtis M J, Hearse D J, Campbell R W F, Janse M J, Yellon D M, Cobbe S M, Cokes S J, Harness J B, Harron D W G, Higgins S J, Julian D G, Lab M J, Manning A S, Northover B J, Parraft J R, Riemersma R A, Rieva E, Russell D G, Sheridan D J, Winslow E, Woodward B: The Lambeth convention: Guidelines for the study of arrhythmias in ischemia, infarction and reperfusion. Cardiovasx. Res 1988; 22: 447-455).
Hoe 642 was dissolved in doubly distilled water and R56865 in tartaric acid (0.6%), dilution was carried out using doubly distilled water, and 4% of mannitol were added. […]

Row | SMILES | size of infarct (10 mg/kg of body weight of Hoe 642 intravenously 5 min before occlusion, n=7) [%] | size of infarct (3 mg/kg of body weight of R56865 intravenously 5 min before occlusion, n=8) [%]
1 | CC(C)c1ccc(C(=O)N=C(N)N)cc1S(C)(=O)=O.CS(=O)(=O)O [Hoe 642, cariporide] | 33.2±3.7 | –
2 | CN(c1nc2ccccc2s1)C1CCN(CCCCOc2ccc(F)cc2)CC1 [R56865, N-[1-[4-(4-fluorophenoxy)butyl]-4-piperdinyl]-N-methyl-2-benzothiazolamine] | – | 38.9±3.1
